Tests used:
IRAK4 = biological target: T1, IRAK4 (Homo sapiens, UniProt Q9NWZ3); experiment: Reaction Biology NanoBRET target engagement assay in HEK-293 cells, IRAK4; conditions: NanoBRET IRAK4 IC50, HEK-293 cells
T1 sequence (Q9NWZ3 1-460): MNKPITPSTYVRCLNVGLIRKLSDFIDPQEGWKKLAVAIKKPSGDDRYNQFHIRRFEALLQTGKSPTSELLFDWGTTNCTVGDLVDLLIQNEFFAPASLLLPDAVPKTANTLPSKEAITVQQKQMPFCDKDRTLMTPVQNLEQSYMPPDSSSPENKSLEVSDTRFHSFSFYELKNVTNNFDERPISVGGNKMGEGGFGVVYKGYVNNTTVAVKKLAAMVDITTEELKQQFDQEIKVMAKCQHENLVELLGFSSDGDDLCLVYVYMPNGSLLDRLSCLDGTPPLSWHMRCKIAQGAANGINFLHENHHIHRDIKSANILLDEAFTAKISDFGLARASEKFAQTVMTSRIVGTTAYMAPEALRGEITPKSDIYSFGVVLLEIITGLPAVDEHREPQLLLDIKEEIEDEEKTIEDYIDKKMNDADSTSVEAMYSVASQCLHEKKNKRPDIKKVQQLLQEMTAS

FLT3 ITD, D835V = biological target: T2, FLT3 ITD, D835V (Homo sapiens, UniProt P36888, D835V, form not given); experiment: DiscoverX KINOMEscan competition binding, FLT3 ITD, D835V; conditions: read-out: FLT3 ITD, D835V Kd
T2 sequence (P36888 1-993 D835V): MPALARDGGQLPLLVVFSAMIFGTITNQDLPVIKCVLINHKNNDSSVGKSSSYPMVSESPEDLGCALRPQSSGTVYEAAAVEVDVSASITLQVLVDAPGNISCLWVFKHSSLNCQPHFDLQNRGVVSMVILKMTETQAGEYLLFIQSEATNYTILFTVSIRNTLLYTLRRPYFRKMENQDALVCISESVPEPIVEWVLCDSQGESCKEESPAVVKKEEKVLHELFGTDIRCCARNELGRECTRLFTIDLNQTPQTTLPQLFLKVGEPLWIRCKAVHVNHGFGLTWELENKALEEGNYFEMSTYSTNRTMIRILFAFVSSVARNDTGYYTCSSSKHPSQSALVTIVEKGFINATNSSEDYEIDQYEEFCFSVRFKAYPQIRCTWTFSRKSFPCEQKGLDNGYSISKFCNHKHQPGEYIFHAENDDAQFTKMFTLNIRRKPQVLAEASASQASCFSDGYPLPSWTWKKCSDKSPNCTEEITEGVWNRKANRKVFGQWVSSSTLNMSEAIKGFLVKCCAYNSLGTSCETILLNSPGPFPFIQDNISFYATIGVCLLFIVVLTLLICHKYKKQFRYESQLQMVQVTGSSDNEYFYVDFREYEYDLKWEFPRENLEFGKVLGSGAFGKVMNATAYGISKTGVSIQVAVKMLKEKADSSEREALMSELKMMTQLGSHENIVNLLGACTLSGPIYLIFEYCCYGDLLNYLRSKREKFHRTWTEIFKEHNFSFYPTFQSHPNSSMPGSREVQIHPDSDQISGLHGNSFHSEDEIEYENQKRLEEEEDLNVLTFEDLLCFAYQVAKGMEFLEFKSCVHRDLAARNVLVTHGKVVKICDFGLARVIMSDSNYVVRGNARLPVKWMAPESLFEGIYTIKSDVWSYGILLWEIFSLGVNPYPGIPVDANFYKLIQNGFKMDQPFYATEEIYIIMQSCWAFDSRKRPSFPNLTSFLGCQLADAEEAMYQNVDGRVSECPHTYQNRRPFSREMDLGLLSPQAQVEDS

FLT3 K663Q = biological target: T3, FLT3 K663Q (Homo sapiens, UniProt P36888, K663Q); experiment: DiscoverX KINOMEscan competition binding, FLT3 K663Q
T3 construct: purchased DiscoverX (KINOMEscan)
T3 sequence (P36888 27-993 K663Q): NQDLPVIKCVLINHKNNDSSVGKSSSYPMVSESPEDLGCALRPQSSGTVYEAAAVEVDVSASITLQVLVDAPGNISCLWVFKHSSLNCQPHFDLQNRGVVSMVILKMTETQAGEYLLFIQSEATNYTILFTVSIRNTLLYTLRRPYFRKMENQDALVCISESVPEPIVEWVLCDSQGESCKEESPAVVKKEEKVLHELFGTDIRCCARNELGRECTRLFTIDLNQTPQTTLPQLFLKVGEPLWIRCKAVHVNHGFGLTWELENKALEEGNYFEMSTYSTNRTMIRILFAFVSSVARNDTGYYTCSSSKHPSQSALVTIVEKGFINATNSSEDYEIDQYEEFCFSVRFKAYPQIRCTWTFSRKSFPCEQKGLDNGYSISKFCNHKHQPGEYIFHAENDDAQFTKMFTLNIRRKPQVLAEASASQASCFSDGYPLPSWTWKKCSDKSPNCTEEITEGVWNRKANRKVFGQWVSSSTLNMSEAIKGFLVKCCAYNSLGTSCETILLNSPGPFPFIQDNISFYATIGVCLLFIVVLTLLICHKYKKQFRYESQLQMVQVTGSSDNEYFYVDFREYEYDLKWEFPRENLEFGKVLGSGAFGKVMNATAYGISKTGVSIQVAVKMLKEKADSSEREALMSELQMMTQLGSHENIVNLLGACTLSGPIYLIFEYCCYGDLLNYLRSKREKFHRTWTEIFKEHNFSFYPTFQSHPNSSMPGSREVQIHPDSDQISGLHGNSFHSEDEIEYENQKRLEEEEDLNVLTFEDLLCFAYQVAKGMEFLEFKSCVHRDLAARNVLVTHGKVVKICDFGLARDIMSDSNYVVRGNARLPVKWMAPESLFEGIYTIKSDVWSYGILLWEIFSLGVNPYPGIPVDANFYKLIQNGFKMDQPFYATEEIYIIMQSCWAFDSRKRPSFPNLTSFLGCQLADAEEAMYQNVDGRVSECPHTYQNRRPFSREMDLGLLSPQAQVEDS

| SMILES | IC50 (IRAK4) [nM] | Kd (FLT3 ITD, D835V) [nM] | Kd (FLT3 K663Q) [nM] |
| --- | --- | --- | --- |
| CC(O)(c1cn2c(-c3ccnc(N[C@H]4CNCC[C@@H]4F)n3)cnc2cn1)C(F)(F)F (single isomer, unassigned) [Compound 72] | < 0.5 | 0.08 | 21 |
| F[C@H]1CCNC[C@@H]1Nc1cncc(-c2cnc3cc(OC4CC4)ccn23)n1 [Compound 12, 6-(7-cyclopropoxyimidazo[1,2-a]pyridin-3-yl)-N-((3S,4S)-4-fluoropiperidin-3-yl)pyrazin-2-amine] | 1 | 0.035 | 13 |
| COc1cc2ncc(-c3cncc(N[C@H]4CNC[C@@H]4F)n3)n2nc1C1CC1 [Compound 22, 6-(6-cyclopropyl-7-methoxyimidazo[1,2-b]pyridazin-3-yl)-N-((3S,4S)-4-fluoropyrrolidin-3-yl)pyrazin-2-amine] | 9 | 0.058 | 18 |
| COc1cc2ncc(-c3cncc(N[C@H]4CNCC[C@@H]4F)n3)n2nc1C1CC1 [Compound 24, 6-(6-cyclopropyl-7-methoxyimidazo[1,2-b]pyridazin-3-yl)-N-((3S,4S)-4-fluoropiperidin-3-yl)pyrazin-2-amine] | 1 | 0.045 | 3.8 |
| COc1cc2ncc(-c3ccnc(N[C@@H]4CCCNC4)n3)n2cc1C(C)(C)O [Compound 44, (R)-2-(7-methoxy-3-(2-(piperidin-3-ylamino)pyrimidin-4-yl)imidazo[1,2-a]pyridin-6-yl)propan-2-ol] | < 0.5 | 0.009 | 2.9 |
| COc1cc2ncc(-c3ccnc(N[C@H]4CNC[C@@H]4F)n3)n2nc1C1CC1 [Compound 49, 4-(6-cyclopropyl-7-methoxyimidazo[1,2-b]pyridazin-3-yl)-N-((3S,4S)-4-fluoropyrrolidin-3-yl)pyrimidin-2-amine] | – | 0.04 | 2.2 |
| COc1cc2ncc(-c3ccnc(N[C@H]4CNCC[C@@H]4F)n3)n2nc1C1CC1 [Compound 51, 4-(6-cyclopropyl-7-methoxyimidazo[1,2-b]pyridazin-3-yl)-N-((3S,4S)-4-fluoropiperidin-3-yl)pyrimidin-2-amine] | 1 | 0.07 | 0.82 |
